Source: the supplement of paper PMC11208160

experiment: recombinant barcode read abundance after kanamycin selection (control-corrected) (log10(CPM+1)); higher = more efficient recombination; sequences stand for … in AGTGCAGAGAAAATCGGCCAGTTTTCTCTGCCTGCAGTCCGCATGCCGT…AGATTTATGCAGCGGACTGCCTTTCTCCCAAAGTGATAAACCGGACAGTATCATGGACCGGTTTTCCCGGTAATCCGTATTTGCAAGGTTGGTTTCACT; site = the 11-nt target
Outline: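 The screen was pooled in E. coli and paired targets with IS621 bridge RNA target-binding loops. Recombination efficiency is taken from barcode counts per million at recombinant junctions, averaged and adjusted against the control. Values, in the form log10(CPM+1), come from duplicate plating on chloramphenicol/ampicillin LB agar or on chloramphenicol/ampicillin/kanamycin with 0.1 mM IPTG.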
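Note: IS621 recombinase and bridge RNA in Escherichia coli cells.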

Row | Sequence | recombinant barcode read abundance (log10)
1 | GAGAATACTTGGGTTCTAACCTGTTGCGT (site GAGAATACTAC) | 2.41
2 | GAGAATCCTTGGGTTCTAACCTGTTGCGT (site GAGAATCCTAC) | 2.49
3 | GAGAATCCTTGGGTTCTAACCTGTTGCGT (site GAGTACCCTAC) | 0.0692
4 | GAGACAACTTGGGTTCTAACCTGTTGCCT (site GAGACAACTAG) | 0.173
5 | GAGACAACTTGGGTTCTAACCTGTTGCCT (site GGGACAGCTAG) | 0.303
6 | GAGACGACTTGGGTTCTAACCTGTTGCCG (site GAGACGACTCG) | 1.61
7 | GAGACGACTTGGGTTCTAACCTGTTGCCG (site GAGATGACTCC) | 0.0966
8 | GAGAGATCTTGGGTTCTAACCTGTTGCCT (site GAGAAATCTAG) | 0.749
9 | GAGAGATCTTGGGTTCTAACCTGTTGCCT (site GAGACATCTAG) | 0.157
10 | GAGAGATCTTGGGTTCTAACCTGTTGCCT (site GAGAGATCTAG) | 1.46
11 | GAGAGATCTTGGGTTCTAACCTGTTGCCT (site GAGATATCTAG) | 0.117
12 | GAGAGCACTTGGGTTCTAACCTGTTGCCT (site AAGAGCACTAG) | 0.256
13 | GAGAGCACTTGGGTTCTAACCTGTTGCCT (site CAGAGCACTAG) | 0.603
14 | GAGAGCACTTGGGTTCTAACCTGTTGCCT (site GAGAGCACTAG) | 1.4
15 | GAGAGCACTTGGGTTCTAACCTGTTGCCT (site TAGAGCACTAG) | 0.548
16 | GAGAGGTCTTGGGTTCTAACCTGTTGCAT (site GAGAGGTCTAA) | 0.552
17 | GAGAGGTCTTGGGTTCTAACCTGTTGCAT (site GAGAGGTCTAC) | 0.435
18 | GAGAGGTCTTGGGTTCTAACCTGTTGCAT (site GAGAGGTCTAG) | 0.458
19 | GAGAGGTCTTGGGTTCTAACCTGTTGCAT (site GAGAGGTCTAT) | 1.82
20 | GAGAGGTCTTGGGTTCTAACCTGTTGCTT (site GAGAGGTCTAA) | 1.79
21 | GAGAGGTCTTGGGTTCTAACCTGTTGCTT (site GAGAGGTCTAC) | 0.202
22 | GAGAGGTCTTGGGTTCTAACCTGTTGCTT (site GAGAGGTCTAG) | 0.893

Row | Sequence | recombinant barcode read abundance (log10)
23 | GAGAGGTCTTGGGTTCTAACCTGTTGCTT (site GAGAGGTCTAT) | 1.46
24 | GAGCAACCTTGGGTTCTAACCTGTTGCTT (site ATAAGCTCTCG) | 0.25
25 | GAGCAACCTTGGGTTCTAACCTGTTGCTT (site GAGCAACCTAA) | 0.0979
26 | GAGCAGGCTTGGGTTCTAACCTGTTGCTT (site AGTTCTCCTCG) | 0.196
27 | GAGCAGGCTTGGGTTCTAACCTGTTGCTT (site GAGCAGGCTAA) | 0.661
28 | GAGCCATCTTGGGTTCTAACCTGTTGCTT (site GAGCCATCTAA) | 0.524
29 | GAGCCATCTTGGGTTCTAACCTGTTGCTT (site GAGTCGTCTAA) | 0.261
30 | GAGCGCTCTTGGGTTCTAACCTGTTGCCG (site GAGCGCTCTCG) | 0.754
31 | GAGCGCTCTTGGGTTCTAACCTGTTGCCG (site GAGCGTTCTAG) | 0.269
32 | GAGGACTCTTGGGTTCTAACCTGTTGCCA (site GAGGACTCTAG) | 1.46
33 | GAGGACTCTTGGGTTCTAACCTGTTGCCA (site GAGGACTCTCG) | 0.263
34 | GAGGACTCTTGGGTTCTAACCTGTTGCCA (site GAGGACTCTGG) | 0.824
35 | GAGGACTCTTGGGTTCTAACCTGTTGCCA (site GAGGACTCTTG) | 2.27
36 | GAGGCTTCTTGGGTTCTAACCTGTTGCCT (site GAGGCTTCTAG) | 0.42
37 | GAGGCTTCTTGGGTTCTAACCTGTTGCCT (site GCGGCTTCTAG) | 0.435
38 | GAGGCTTCTTGGGTTCTAACCTGTTGCCT (site GGGGCTTCTAG) | 0.184
39 | GAGGCTTCTTGGGTTCTAACCTGTTGCCT (site GTGGCTTCTAG) | 0.515
40 | GAGGGAGCTTGGGTTCTAACCTGTTGCAT (site GAGAGAGCTAT) | 1.33
41 | GAGGGAGCTTGGGTTCTAACCTGTTGCAT (site GAGCGAGCTAT) | 0.171
42 | GAGGGAGCTTGGGTTCTAACCTGTTGCAT (site GAGGGAGCTAT) | 2.43
43 | GAGGGAGCTTGGGTTCTAACCTGTTGCAT (site GAGTGAGCTAT) | 0.315
44 | GAGGGGACTTGGGTTCTAACCTGTTGCAG (site GAGGGGACTCT) | 2.76

Row | Sequence | recombinant barcode read abundance (log10)
45 | GAGGGGACTTGGGTTCTAACCTGTTGCAG (site TCCTTCTCTAG) | 0.307
46 | GAGGTATCTTGGGTTCTAACCTGTTGCGT (site GAGGTATCTAC) | 0.252
47 | GAGGTATCTTGGGTTCTAACCTGTTGCGT (site GAGGTATCTTG) | 0.303
48 | GAGGTATCTTGGGTTCTAACCTGTTGCTT (site GAGGTATCTAA) | 0.35
49 | GAGGTATCTTGGGTTCTAACCTGTTGCTT (site GAGGTATCTTA) | 0.0893
50 | GAGGTCACTTGGGTTCTAACCTGTTGCTA (site GAGGTCACTTA) | 2.26
51 | GAGGTCACTTGGGTTCTAACCTGTTGCTA (site TCTCCTCCTAT) | 0.186
52 | GAGGTCCCTTGGGTTCTAACCTGTTGCGG (site CTCCCTGCTAG) | 0.2
53 | GAGGTCCCTTGGGTTCTAACCTGTTGCGG (site GAGGTCCCTCC) | 2.93
54 | GAGTACACTTGGGTTCTAACCTGTTGCGC (site AGCGCGCCTCA) | 0.0967
55 | GAGTACACTTGGGTTCTAACCTGTTGCGC (site GAGTACACTGC) | 2.53
56 | GAGTACCCTTGGGTTCTAACCTGTTGCCT (site GAGTACCCTAG) | 1.96
57 | GAGTACCCTTGGGTTCTAACCTGTTGCCT (site GCGTACCCTAG) | 0.162
58 | GAGTACCCTTGGGTTCTAACCTGTTGCCT (site GGGTACCCTAG) | 0.619
59 | GAGTACCCTTGGGTTCTAACCTGTTGCCT (site GTGTACCCTAG) | 0.0322
60 | GAGTAGACTTGGGTTCTAACCTGTTGCTT (site GAGTAGACTAA) | 1.64
61 | GAGTAGACTTGGGTTCTAACCTGTTGCTT (site GAGTAGTCTAA) | 1.22
62 | GAGTATGCTTGGGTTCTAACCTGTTGCCT (site GAGTATGCTAG) | 1.72
63 | GAGTATGCTTGGGTTCTAACCTGTTGCCT (site GATTATGCTAG) | 0.223
64 | GAGTATTCTTGGGTTCTAACCTGTTGCCT (site GAATATTCTAG) | 1.2
65 | GAGTATTCTTGGGTTCTAACCTGTTGCCT (site GACTATTCTAG) | 0.0264
66 | GAGTATTCTTGGGTTCTAACCTGTTGCCT (site GAGTATTCTAG) | 1.16

Row | Sequence | recombinant barcode read abundance (log10)
67 | GAGTATTCTTGGGTTCTAACCTGTTGCCT (site GATTATTCTAG) | 0.123
68 | GAGTCGTCTTGGGTTCTAACCTGTTGCCT (site GAGTCGCCTAG) | 0.193
69 | GAGTCGTCTTGGGTTCTAACCTGTTGCCT (site GAGTCGTCTAG) | 1.78
70 | GAGTCTACTTGGGTTCTAACCTGTTGCCA (site CCTATAGCTAA) | 0.0951
71 | GAGTCTACTTGGGTTCTAACCTGTTGCCA (site GAGTCTACTTG) | 0.317
72 | GAGTCTACTTGGGTTCTAACCTGTTGCCG (site GAGTCTACTCG) | 0.562
73 | GAGTCTACTTGGGTTCTAACCTGTTGCCG (site GAGTCTACTCT) | 0.0936
74 | GAGTTAACTTGGGTTCTAACCTGTTGCCG (site GAGTTAACTCG) | 0.262
75 | GAGTTAACTTGGGTTCTAACCTGTTGCCG (site GTGTGAACTCG) | 0.0546
76 | GAGTTCCCTTGGGTTCTAACCTGTTGCGT (site GAGTTACCTAC) | 0.341
77 | GAGTTCCCTTGGGTTCTAACCTGTTGCGT (site GAGTTCCCTAC) | 2.66
78 | GAGTTCCCTTGGGTTCTAACCTGTTGCGT (site GAGTTGCCTAC) | 0.23
79 | GAGTTCCCTTGGGTTCTAACCTGTTGCGT (site GAGTTTCCTAC) | 0.0134
80 | GAGTTGCCTTGGGTTCTAACCTGTTGCGT (site GAGTTACCTAC) | 1.96
81 | GAGTTGCCTTGGGTTCTAACCTGTTGCGT (site GAGTTCCCTAC) | 0.108
82 | GAGTTGCCTTGGGTTCTAACCTGTTGCGT (site GAGTTGCCTAC) | 1.68
83 | GAGTTGCCTTGGGTTCTAACCTGTTGCGT (site GAGTTTCCTAC) | 0.0593
84 | GAGTTTCCTTGGGTTCTAACCTGTTGCAG (site GAGCGTCCTCT) | 0.118
85 | GAGTTTCCTTGGGTTCTAACCTGTTGCAG (site GAGTTTCCTCT) | 0.343
86 | GATAGAGCTTGGGTTCTAACCTGTTGCCG (site GATAGAGCTCG) | 0.772
